PubChem BioAssay AID256 (DTP/NCI, 2004)
Where “and” joins values, the source holds several entries; their conditions need not be identical. Equal values may be shown once. Inconclusive results and toxic doses are left out. How the source made its calls: active means survival T/C of 150% or more; inactive means T/C below 125% in these data.

System: CD2F1 mice, L1210 leukemia ip, survival T/C
Assay: NCI In Vivo Anticancer Drug Screen. Data for tumor model L1210 Leukemia (intraperitoneal) in CD2F1 (CDF1) mice
Conditions: endpoint: mean survival time, higher = longer survival
How it was run: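 Compound-dosed mice with transplantable tumor versus matched vehicle controls; endpoint ratio T/C reported.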

[1] = dose: 25.0 mg/kg/injection, schedule: Q01DX009 (ip), vehicle: saline with Tween-80
[2] = dose: 50.0 mg/kg/injection, schedule: Q01DX009 (ip), vehicle: saline with Tween-80
[3] = dose: 100.0 mg/kg/injection, schedule: Q04DX003 (ip), vehicle: saline with Tween-80
[4] = dose: 100.0 mg/kg/injection, schedule: Q01DX009 (ip), vehicle: saline with Tween-80
[5] = dose: 100.0 mg/kg/injection, schedule: Q04DX003 (ip), vehicle: saline
[6] = dose: 200.0 mg/kg/injection, schedule: Q04DX003 (ip), vehicle: saline
[7] = dose: 200.0 mg/kg/injection, schedule: Q04DX003 (ip), vehicle: saline with Tween-80
[8] = dose: 400.0 mg/kg/injection, schedule: Q04DX003 (ip), vehicle: saline with Tween-80
[9] = dose: 200.0 mg/kg/injection, schedule: Q01DX009 (ip), vehicle: saline with Tween-80
[10] = dose: 400.0 mg/kg/injection, schedule: Q01DX009 (ip), vehicle: saline with Tween-80
[11] = dose: 100.0 mg/kg/injection, schedule: Q04DX002 (ip), vehicle: saline with Tween-80
[12] = dose: 12.5 mg/kg/injection, schedule: Q01DX009 (ip), vehicle: saline with Tween-80
[13] = dose: 12.5 mg/kg/injection, schedule: Q04DX003 (ip), vehicle: saline with Tween-80
[14] = dose: 25.0 mg/kg/injection, schedule: Q04DX003 (ip), vehicle: saline with Tween-80
[15] = dose: 100.0 mg/kg/injection, schedule: Q01DX001 (ip), vehicle: saline with Tween-80
[16] = dose: 400.0 mg/kg/injection, schedule: Q01DX001 (ip), vehicle: saline with Tween-80
[17] = dose: 200.0 mg/kg/injection, schedule: Q01DX001 (ip), vehicle: saline with Tween-80
[18] = dose: 400.0 mg/kg/injection, schedule: Q04DX003 (ip), vehicle: saline

Measured: T/C

COc1ccc2c(Nc3ccc(NS(C)(=O)=O)cc3)c3ccccc3nc2c1
inactive: [1] 100 % of control | [2] 86 % of control | [3] 120 % of control | dose: 150.0 mg/kg/injection, schedule: Q04DX003 (ip), vehicle: saline with Tween-80 94 % of control

Cc1nc2n3c(nc(C)c13)=CCC2
inactive: [1] 96 % of control | [2] 98 % of control | [4] 93 % of control | [3] 97 % of control

CC1(C)CC(O)(C(Cl)c2ccccc2)C(=O)c2ccccc21 (stereo unspecified)
inactive: dose: 25.0 mg/kg/injection, schedule: Q01DX009 (ip), vehicle: water 103 % of control | dose: 50.0 mg/kg/injection, schedule: Q01DX009 (ip), vehicle: water 104 % of control | dose: 100.0 mg/kg/injection, schedule: Q01DX009 (ip), vehicle: water 98 % of control | dose: 100.0 mg/kg/injection, schedule: Q04DX003 (ip), vehicle: acetone 98 % of control | dose: 200.0 mg/kg/injection, schedule: Q01DX009 (ip), vehicle: water 109 % of control | dose: 200.0 mg/kg/injection, schedule: Q04DX003 (ip), vehicle: acetone 95 % of control | dose: 400.0 mg/kg/injection, schedule: Q01DX009 (ip), vehicle: water 107 % of control | dose: 400.0 mg/kg/injection, schedule: Q04DX003 (ip), vehicle: acetone 95 % of control

Cc1ccnc(=S)[nH]1.[Pd]
inactive: dose: 3.12 mg/kg/injection, schedule: Q04DX003 (ip), vehicle: saline 98 % of control | dose: 6.25 mg/kg/injection, schedule: Q04DX003 (ip), vehicle: saline 102 % of control | dose: 12.5 mg/kg/injection, schedule: Q04DX003 (ip), vehicle: saline 98 % of control | dose: 25.0 mg/kg/injection, schedule: Q04DX003 (ip), vehicle: saline 98 % of control | dose: 50.0 mg/kg/injection, schedule: Q04DX003 (ip), vehicle: saline 102 % of control | [5] 102 % of control | [6] 104 % of control

CC(Br)C(=O)NCC(=O)O (stereo unspecified)
inactive: [3] 92 % of control | [7] 91 % of control | [8] 95 % of control

N#CCN(CC#N)CCN(CC#N)CC#N
inactive: [4] 92 % of control | [3] 97 % of control | [9] 93 % of control | [7] 97 % of control | [10] 104 % of control | [8] 97 % of control

CC(C)(C)C1CCCCC1
inactive: dose: 12.5 mg/kg/injection, schedule: Q01DX009 (ip), vehicle: Klucel (hydroxypropylcellulose) (HPC) 90 % of control and 101 % of control | dose: 25.0 mg/kg/injection, schedule: Q01DX009 (ip), vehicle: Klucel (hydroxypropylcellulose) (HPC) 90 % of control and 98 % of control | dose: 50.0 mg/kg/injection, schedule: Q01DX009 (ip), vehicle: Klucel (hydroxypropylcellulose) (HPC) 93 % of control and 101 % of control | dose: 100.0 mg/kg/injection, schedule: Q01DX009 (ip), vehicle: Klucel (hydroxypropylcellulose) (HPC) 88 % of control and 98 % of control | dose: 200.0 mg/kg/injection, schedule: Q01DX009 (ip), vehicle: Klucel (hydroxypropylcellulose) (HPC) 91 % of control and 98 % of control | dose: 400.0 mg/kg/injection, schedule: Q01DX009 (ip), vehicle: Klucel (hydroxypropylcellulose) (HPC) 93 % of control

C1=C[N]2c3c4c(ccc3=C1)=CC=C[N]4[Ga]2[c]1ccccc1
inactive: [3] 118 % of control

COc1c(C)c2c(c3c1CCC(C)(CCC(=O)O)O3)C(=O)OC2 (stereo unspecified)
inactive: [11] 103 % of control | dose: 200.0 mg/kg/injection, schedule: Q04DX002 (ip), vehicle: saline with Tween-80 108 % of control | dose: 400.0 mg/kg/injection, schedule: Q04DX002 (ip), vehicle: saline with Tween-80 100 % of control

Cc1nc(N)[nH]c(=O)c1NC(=O)c1ccc(N=[N+]=[N-])cc1
inactive: dose: 12.5 mg/kg/injection, schedule: Q01DX001 (ip), vehicle: saline with Tween-80 90 % of control | [12] 89 % of control | [13] 97 % of control | dose: 25.0 mg/kg/injection, schedule: Q01DX001 (ip), vehicle: saline with Tween-80 95 % of control | [1] 94 % of control | [14] 97 % of control | dose: 50.0 mg/kg/injection, schedule: Q01DX001 (ip), vehicle: saline with Tween-80 94 % of control | [2] 91 % of control | dose: 50.0 mg/kg/injection, schedule: Q04DX003 (ip), vehicle: saline with Tween-80 96 % of control

N#CCCN(CCCN1CCOCC1)C(=S)Nc1cccc(C(F)(F)F)c1
inactive: dose: 25.0 mg/kg/injection, schedule: Q04DX002 (ip), vehicle: saline with Tween-80 104 % of control | dose: 50.0 mg/kg/injection, schedule: Q04DX002 (ip), vehicle: saline with Tween-80 98 % of control | [11] 106 % of control

O=[As](O)(O)CC(Br)CBr (stereo unspecified)
inactive: [4] 100 % of control | [9] 94 % of control

Nc1ccc([N+](=O)[O-])c(S(=O)(=O)O)c1
inactive: [3] 95 % of control | [7] 95 % of control | [8] 89 % of control

CCOC(=O)CC/C(C)=N\N(C)C
inactive: [4] 103 % of control | [9] 97 % of control | [10] 96 % of control

O=C(CNCc1ccccc1)c1ccccc1
inactive: [3] 94 % of control | [7] 96 % of control | [8] 93 % of control

CC(C)(C)OC(=O)N/N=C1\CC2CCC1C2 (stereo unspecified)
inactive: [1] 107 % of control

CCCCCCCCCCCCOC(=O)C[n+]1cccc(C(=O)NCc2ccccc2)c1
inactive: dose: 6.25 mg/kg/injection, schedule: Q04DX003 (ip), vehicle: saline with Tween-80 108 % of control | [13] 104 % of control | [14] 106 % of control

Cc1ccc(-c2csc(/N=C/c3ccccc3O)n2)cc1.Cc1ccc(-c2csc(/N=C/c3ccccc3O)n2)cc1.[Cu]
inactive: dose: 25.0 mg/kg/injection, schedule: Q01DX001 (ip), vehicle: saline 91 % of control | dose: 50.0 mg/kg/injection, schedule: Q01DX001 (ip), vehicle: saline 96 % of control | [15] 86 % of control | dose: 100.0 mg/kg/injection, schedule: Q01DX001 (ip), vehicle: saline 87 % of control | [16] 93 % of control

COC1OC(COS(=O)(=O)c2ccc(C)cc2)C(O)C(O)C1O (stereo unspecified)
inactive: [15] 100 % of control | [4] 96 % of control | [17] 95 % of control | [9] 91 % of control | [16] 94 % of control | [10] 94 % of control

CS(=O)(=O)Cc1cnc(N)nc1-c1ccccc1
inactive: [15] 94 % of control | [17] 97 % of control | [16] 94 % of control

CCC(C)(C)C(=O)O
inactive: [3] 100 % of control | [7] 103 % of control | [8] 105 % of control

COc1cc(OC)c(NC(=O)Nc2ccc(NC(C)=O)cc2)cc1Cl
inactive: [12] 103 % of control | [1] 103 % of control | [2] 103 % of control

CCC(=O)C(C)N(C)c1ccccc1 (stereo unspecified)
inactive: [5] 100 % of control | [6] 100 % of control | [18] 94 % of control

Cn1ccoc1=NC1CCCCC1
inactive: [2] 94 % of control | [4] 94 % of control | [9] 91 % of control

c1ccc(CC2=NCCO2)cc1
inactive: [5] 100 % of control | [6] 95 % of control | [18] 98 % of control

CC(C)=C(C)c1ccccc1
inactive: [2] 103 % of control | [4] 106 % of control | [9] 103 % of control
